Test results as given in patent publication US20250041292A1, “METHODS FOR TREATING PRIMARY IMMUNODEFICIENCY” (X4 Pharmaceuticals, Inc., priority 2021, published 2025).
Entries after “also recorded” stand apart in the source; their conditions may differ.

Key:
[1] = mouse, in vivo; cited from earlier work
WHIM mice = details: gavaged daily 100 mg/kg for 1 or 3 weeks; cited from earlier work
CVID B cells = assay: Chemotaxis assay: PBMCs from a patient with CVID due to NFKB1 mutation; type: cell-based, human
Protocol: PBMCs from patients or healthy donors were resuspended in chemotaxis buffer (RPMI 1640 media containing 20 mM HEPES, L-glutamine, and 0.5% BSA) at 2.0×10^6 cells/mL. […] Chemotaxis was assayed immediately after treatment with drug by placing 1.0×10^5 cells in 100 μL in the upper chamber of a Transwell 24-well plate separated by a 6.5 mm insert with 3 μm pores (Corning Life Sciences, Corning, NY, USA) from the lower chamber containing 600 μL of buffer with the indicated concentration of CXCL12. After incubation for 2.5 hours at 37° C. in a 5% CO2 incubator, the cells that migrated into the lower chamber were collected by centrifugation and resuspended in the assay buffer. Cells were blocked using Human TruStain FcX (BioLegend, Inc) for 10 minutes at RT, and subsequently B lymphocyte subtyping was performed (Alexa Fluor® 488 Mouse anti-human CD19 IgG1, κ, HIB19, BioLegend, Cat #302219). A fixed number of flow cytometry counting beads (Precision Count Beads; BioLegend) were added to each sample.
Both migrated cells and counting beads were counted by flow cytometry (CytoFLEX). Data were analyzed using FCS Express software, and the total number of migrated cells was calculated, according to the counted and total number of beads present in the sample. Results are presented as percentage of migrated B cells out of the total number of B cells placed in the chemotaxis chamber.

[2] = test system: peripheral WBC counts and subsets; assay: Phase 1b trial of mavorixafor in combination with ibrutinib in Waldenstrom's macroglobulinemia: peripheral WBC counts; type: in vivo, human; details: WM, interim analysis
[3] = test system: peripheral WBC counts and subsets; assay: Phase 1b trial of mavorixafor in combination with nivolumab in metastatic ccRCC: peripheral WBC counts; type: in vivo, human
[4] = test system: peripheral WBC counts and subsets; assay: Phase 1/2 trial of mavorixafor in combination with axitinib in advanced ccRCC: peripheral WBC counts; type: in vivo, human; details: mavorixafor 400 mg QD + axitinib
[5] = test system: circulating white blood cells; details: 400-mg single-dose subject; cited from earlier work
[6] = test system: peripheral WBC counts and subsets; assay: Long-term extension of phase 2 trial of mavorixafor in WHIM syndrome: WBC counts and infection rate; details: WHIM syndrome phase 2 extension
[7] = after 6 months' (n=5) treatment
[8] = compared to screening values, after 4 weeks (n=8)
[9] = after 6 months' treatment (n=20)
[10] = mavorixafor 300 or 400 mg QD, after 6 months' (n=5) treatment

Q: Which results are given for `Cc1cccnc1[C@@H]1CCC[C@H](c2nc3cccc(N4CCN(C)CC4)n3c2CO)N1C`?
A: oral bioavailability [1]: orally bioavailable; IL-7 production and B cell development (WHIM mice): restored IL-7 production and B cell development

Q: What does the source list for mavorixafor?
A: mavorixafor concentration effectively neutralizing the chemotaxis (CVID B cells; CVID B cells cultured with 10 nm CXCL12, FIG. 1C): 0.1 µM; effect on enhanced chemotaxis toward CXCL12 (CVID B cells; CVID patient B cells, FIG. 1C): dose-dependent normalization effect on chemotaxis; also recorded: normalizes enhanced chemotaxis; ALC [2, 7]: 106 % of baseline; AMC [2, 7]: 172 % of baseline; ANC [2, 7]: 192 % of baseline; total WBC count [2, 7]: 163 % of baseline; ALC [2, 8]: 219 % of baseline; AMC [2, 8]: 186 % of baseline; ANC [2, 8]: 170 % of baseline; total WBC count [2, 8]: 192 % of baseline; ALC ([3]; after 4 weeks (n=9)): 141 % of baseline; AMC ([3]; after 4 weeks (n=9)): 179 % of baseline; ANC ([3]; after 4 weeks (n=9)): 143 % of baseline; total WBC count ([3]; after 4 weeks (n=9)): 146 % of baseline; ALC ([3]; after 6 months (n=2)): 152 % of baseline; AMC ([3]; after 6 months (n=2)): 191 % of baseline; ANC ([3]; after 6 months (n=2)): 136 % of baseline; total WBC count ([3]; after 6 months (n=2)): 147 % of baseline; ALC ([4]; after 4 weeks (n=49)): 143 % of baseline; AMC ([4]; after 4 weeks (n=49)): 182 % of baseline; ANC ([4]; after 4 weeks (n=49)): 158 % of baseline; total WBC count ([4]; after 4 weeks (n=49)): 153 % of baseline; ALC [4, 9]: 139 % of baseline; AMC [4, 9]: 166 % of baseline; ANC [4, 9]: 171 % of baseline; total WBC count [4, 9]: 159 % of baseline; increase in the number of circulating white blood cells (Leukocytosis) [5]: 2.9 fold above baseline; annualized infection rate ([6]; after 40 months, baseline 5.6 (SD±3.13) events): 2.2 (SD±0.93) events; ALC [6, 10]: 239 % of baseline; AMC [6, 10]: 486 % of baseline; ANC [6, 10]: 652 % of baseline; total WBC count [6, 10]: 339 % of baseline
